The source made the active and inactive calls.
What was measured:
[1] = target: 26S proteasome non-ATPase regulatory subunit 14 (Homo sapiens, UniProt O00487); experiment: inhibition of proteasome subunit RPN11 – biochemical, fluorescence polarization, uHTS hits, confirmation (AID 602368); type: functional
[2] = target: 72 kDa type IV collagenase (Homo sapiens, UniProt P08253); experiment: Dose Response validation of uHTS RPN11 inhibitor hits using a MMP-2 Fluorescence assay.; type: functional
Prothrombin = Prothrombin (Bos taurus, UniProt P00735); experiment: thrombin inhibition, dose response, biochemical, fluorescence polarization, uHTS hits (AID 602369); type: functional
[3] = target: T1, RNA-binding protein pos-1 (Caenorhabditis elegans, UniProt G5EF15); experiment: inhibitors of POS-1/mex-3 RNA binding, dose response, biochemical, fluorescence polarization (AID 1964);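 note: purified POS-1 fused to maltose binding protein made in E. coli; potency of compounds blocking POS-1 binding to fluorescent RNA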
T1 sequence (G5EF15 whole entry): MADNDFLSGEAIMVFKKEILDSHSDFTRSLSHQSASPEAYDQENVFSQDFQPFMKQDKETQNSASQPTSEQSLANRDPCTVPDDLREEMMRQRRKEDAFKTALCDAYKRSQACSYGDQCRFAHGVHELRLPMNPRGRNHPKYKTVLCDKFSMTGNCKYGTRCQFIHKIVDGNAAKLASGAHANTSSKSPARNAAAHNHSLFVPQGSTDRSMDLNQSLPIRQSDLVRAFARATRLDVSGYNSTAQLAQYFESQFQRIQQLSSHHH

[4] = target: T2, Zinc finger protein mex-5 (Caenorhabditis elegans, UniProt Q9XUB2); experiment: MEX-5/TCR-2 RNA interaction inhibitors, dose response, biochemical, C. elegans, fluorescence polarization (AID 1960)
T2 sequence (Q9XUB2 whole entry): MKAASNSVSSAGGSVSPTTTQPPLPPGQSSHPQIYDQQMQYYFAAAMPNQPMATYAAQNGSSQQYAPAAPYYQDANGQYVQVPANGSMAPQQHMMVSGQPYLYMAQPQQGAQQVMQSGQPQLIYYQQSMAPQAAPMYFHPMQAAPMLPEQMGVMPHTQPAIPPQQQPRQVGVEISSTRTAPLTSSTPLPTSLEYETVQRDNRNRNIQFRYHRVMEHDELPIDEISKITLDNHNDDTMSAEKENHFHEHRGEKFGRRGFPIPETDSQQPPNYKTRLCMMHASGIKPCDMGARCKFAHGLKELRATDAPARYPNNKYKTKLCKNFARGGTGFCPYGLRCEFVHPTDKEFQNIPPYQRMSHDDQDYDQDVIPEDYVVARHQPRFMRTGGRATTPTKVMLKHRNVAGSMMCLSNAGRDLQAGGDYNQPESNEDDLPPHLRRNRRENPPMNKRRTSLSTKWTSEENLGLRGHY

[5] = target: T3, Endoribonuclease toxin MazF (Escherichia coli K-12, UniProt P0AE70); experiment: MazF toxin RNase activators, dose response, biochemical, fluorescence, single-stranded RNA substrate, uHTS hits (AID 588481); type: functional
T3 sequence (P0AE70 whole entry): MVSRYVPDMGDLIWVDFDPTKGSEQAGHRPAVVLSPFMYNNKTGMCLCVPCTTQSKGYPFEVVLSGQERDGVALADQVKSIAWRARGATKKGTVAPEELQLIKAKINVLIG

[6] = target: T3, Endoribonuclease toxin MazF; experiment: fluorescent RNA oligo signal without MazF, dose response, counter-screen for MazEF activator project, biochemical, fluorescence, single-stranded RNase substrate (AID 588502); type: functional
[7] = inhibitors of firefly luciferase expression or activity, dose response, H4 neuroglioma cells, luminescence (AID 1990); type: functional, cell-based
BJ [8] = experiment: cytotoxicity toward BJ-TERT fibroblasts, dose response, cell-based, RAS-independent, luminescence (AID 1933); type: functional; settings: Homo sapiens
[9] = Luminescence Cell-Based Dose Response HTS to Identify Inhibitors of 5'UTR Stem-Loop Driven Prion Protein mRNA Translation in H4 Neuroglioblastoma Cells. [Related pubchem assays: 1827 (Project Summary), 1813 (Primary HTS)]; type: functional
[10] = inhibitors of SNCA 5'UTR-driven reporter translation, confirmation, H4 neuroglioma cells, luminescence (AID 1988); type: functional, cell-based
BJ [11] = experiment: cells; type: functional, cell-based; settings: Homo sapiens
BJ [12] = experiment: cytotoxicity toward BJ-TERT-LT-ST fibroblasts, dose response, cell-based, RAS-independent, luminescence (AID 1935); type: functional; settings: Homo sapiens;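 note: BJ fibroblasts immortalized with TERT plus LT and ST oncogenes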
[13] = cytotoxicity toward DRD oncogenic fibroblasts, dose response, cell-based, non-viral oncogenic, luminescence (AID 1934); type: functional; settings: Homo sapiens
[14] = target: T4, Heat shock factor protein 1 (Mus musculus, UniProt P38532); experiment: HSF1 potentiators in luciferase reporter cells, confirmation, cell-based, NIH3T3, luminescence, dose retest (AID 435004); type: functional;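 note: stress induced by proteasome inhibitor MG132 added 30 min after compound; luciferase reporter driven by HSF1 response element in NIH3T3 cells; actives raise luminescence as potentiators of the MG132 stress response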
T4 sequence (P38532 whole entry): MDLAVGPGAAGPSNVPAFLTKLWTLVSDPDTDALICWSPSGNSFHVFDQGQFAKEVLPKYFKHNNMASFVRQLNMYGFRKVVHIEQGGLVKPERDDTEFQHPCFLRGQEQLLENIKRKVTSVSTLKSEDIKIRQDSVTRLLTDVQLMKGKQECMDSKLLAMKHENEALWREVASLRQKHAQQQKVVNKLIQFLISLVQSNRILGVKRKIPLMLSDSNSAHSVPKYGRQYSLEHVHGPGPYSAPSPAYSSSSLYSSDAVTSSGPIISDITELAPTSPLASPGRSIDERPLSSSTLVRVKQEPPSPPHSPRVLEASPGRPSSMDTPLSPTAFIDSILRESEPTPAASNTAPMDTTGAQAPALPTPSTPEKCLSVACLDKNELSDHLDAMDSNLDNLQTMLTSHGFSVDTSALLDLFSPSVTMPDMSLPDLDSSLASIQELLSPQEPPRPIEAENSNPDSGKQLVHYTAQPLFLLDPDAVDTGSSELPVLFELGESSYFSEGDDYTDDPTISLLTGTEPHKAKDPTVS

BJ [15] = experiment: cytotoxicity toward Ras-transformed BJeLR fibroblasts, dose response, cell-based, alamar blue fluorescence, cherrypicked samples (AID 2631); type: functional; settings: Homo sapiens;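 note: confirmatory dose-response assay in RAS-dependent BJ fibroblasts engineered with TERT, LT and ST, with cytotoxicity read by fluorescence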
[16] = target: T5, Sentrin-specific protease 8 (Homo sapiens, UniProt Q96LD8); experiment: SENP8 protease inhibitors, SAR follow-up, biochemical, luminescence (AID 504501); type: functional
T5 sequence (Q96LD8 whole entry): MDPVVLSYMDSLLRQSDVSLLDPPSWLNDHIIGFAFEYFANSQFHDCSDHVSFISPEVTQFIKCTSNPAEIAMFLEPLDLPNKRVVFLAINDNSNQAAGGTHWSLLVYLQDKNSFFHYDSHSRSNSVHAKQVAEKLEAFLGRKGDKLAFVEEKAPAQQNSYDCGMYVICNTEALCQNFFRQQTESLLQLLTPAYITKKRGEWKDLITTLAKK

Caspase-3 = target: T6, Caspase-3 (Homo sapiens, UniProt P42574); experiment: SAR Analysis of small molecule inhibitors of Sentrin-specific proteases (SENPs) using a Caspase-3 Selectivity assay. [Related pubchem assays (depositor defined):AID2540, AID2599, AID434973, AID489001]; type: functional
T6 sequence (P42574 whole entry): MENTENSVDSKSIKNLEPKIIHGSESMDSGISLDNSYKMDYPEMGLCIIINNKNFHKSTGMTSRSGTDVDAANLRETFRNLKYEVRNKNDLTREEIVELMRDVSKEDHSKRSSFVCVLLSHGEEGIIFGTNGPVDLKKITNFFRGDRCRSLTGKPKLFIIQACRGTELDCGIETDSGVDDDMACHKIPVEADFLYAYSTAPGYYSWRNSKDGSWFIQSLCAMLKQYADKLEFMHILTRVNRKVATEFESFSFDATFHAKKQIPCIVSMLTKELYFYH

[17] = target: T7, Sentrin-specific protease 6 (Homo sapiens, UniProt Q9GZR1); experiment: SAR Analysis of small molecule inhibitors of Sentrin-specific protease 6 (SENP6) using a Luminescent assay. [Related pubchem assays (depositor defined):AID2582, AID2599]; type: functional
T7 sequence (Q9GZR1 whole entry): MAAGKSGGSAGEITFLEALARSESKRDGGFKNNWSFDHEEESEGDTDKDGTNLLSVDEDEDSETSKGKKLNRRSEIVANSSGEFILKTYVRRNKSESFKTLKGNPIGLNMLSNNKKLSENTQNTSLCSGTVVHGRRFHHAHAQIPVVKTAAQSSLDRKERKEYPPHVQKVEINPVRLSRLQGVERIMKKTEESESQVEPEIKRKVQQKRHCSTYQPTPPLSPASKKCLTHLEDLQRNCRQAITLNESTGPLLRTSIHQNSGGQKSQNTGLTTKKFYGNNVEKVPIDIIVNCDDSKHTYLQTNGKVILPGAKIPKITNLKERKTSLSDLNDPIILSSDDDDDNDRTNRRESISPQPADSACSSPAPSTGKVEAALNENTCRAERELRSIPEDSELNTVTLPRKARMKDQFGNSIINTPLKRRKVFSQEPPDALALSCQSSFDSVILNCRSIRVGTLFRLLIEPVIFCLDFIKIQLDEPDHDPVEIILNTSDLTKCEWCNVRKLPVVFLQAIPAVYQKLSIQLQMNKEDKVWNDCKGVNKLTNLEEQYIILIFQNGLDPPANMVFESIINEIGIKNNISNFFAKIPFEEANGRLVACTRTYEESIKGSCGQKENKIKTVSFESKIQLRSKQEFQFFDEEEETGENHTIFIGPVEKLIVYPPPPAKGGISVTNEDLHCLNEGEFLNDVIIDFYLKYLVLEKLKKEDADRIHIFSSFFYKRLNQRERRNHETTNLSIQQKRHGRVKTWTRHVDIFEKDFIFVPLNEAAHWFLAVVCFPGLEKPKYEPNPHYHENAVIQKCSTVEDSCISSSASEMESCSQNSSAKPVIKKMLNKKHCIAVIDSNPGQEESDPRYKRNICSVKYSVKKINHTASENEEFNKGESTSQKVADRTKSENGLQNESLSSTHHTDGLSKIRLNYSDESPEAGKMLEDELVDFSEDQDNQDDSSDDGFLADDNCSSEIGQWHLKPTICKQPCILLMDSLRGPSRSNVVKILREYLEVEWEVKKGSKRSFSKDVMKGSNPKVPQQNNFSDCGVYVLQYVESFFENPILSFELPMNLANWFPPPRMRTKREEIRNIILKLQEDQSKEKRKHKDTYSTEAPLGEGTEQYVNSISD

[18] = target: T8, Sentrin-specific protease 7 (Homo sapiens, UniProt Q9BQF6); experiment: SENP7 protease inhibitors, SAR follow-up, biochemical, luminescence (AID 504497); type: functional
T8 sequence (Q9BQF6 whole entry): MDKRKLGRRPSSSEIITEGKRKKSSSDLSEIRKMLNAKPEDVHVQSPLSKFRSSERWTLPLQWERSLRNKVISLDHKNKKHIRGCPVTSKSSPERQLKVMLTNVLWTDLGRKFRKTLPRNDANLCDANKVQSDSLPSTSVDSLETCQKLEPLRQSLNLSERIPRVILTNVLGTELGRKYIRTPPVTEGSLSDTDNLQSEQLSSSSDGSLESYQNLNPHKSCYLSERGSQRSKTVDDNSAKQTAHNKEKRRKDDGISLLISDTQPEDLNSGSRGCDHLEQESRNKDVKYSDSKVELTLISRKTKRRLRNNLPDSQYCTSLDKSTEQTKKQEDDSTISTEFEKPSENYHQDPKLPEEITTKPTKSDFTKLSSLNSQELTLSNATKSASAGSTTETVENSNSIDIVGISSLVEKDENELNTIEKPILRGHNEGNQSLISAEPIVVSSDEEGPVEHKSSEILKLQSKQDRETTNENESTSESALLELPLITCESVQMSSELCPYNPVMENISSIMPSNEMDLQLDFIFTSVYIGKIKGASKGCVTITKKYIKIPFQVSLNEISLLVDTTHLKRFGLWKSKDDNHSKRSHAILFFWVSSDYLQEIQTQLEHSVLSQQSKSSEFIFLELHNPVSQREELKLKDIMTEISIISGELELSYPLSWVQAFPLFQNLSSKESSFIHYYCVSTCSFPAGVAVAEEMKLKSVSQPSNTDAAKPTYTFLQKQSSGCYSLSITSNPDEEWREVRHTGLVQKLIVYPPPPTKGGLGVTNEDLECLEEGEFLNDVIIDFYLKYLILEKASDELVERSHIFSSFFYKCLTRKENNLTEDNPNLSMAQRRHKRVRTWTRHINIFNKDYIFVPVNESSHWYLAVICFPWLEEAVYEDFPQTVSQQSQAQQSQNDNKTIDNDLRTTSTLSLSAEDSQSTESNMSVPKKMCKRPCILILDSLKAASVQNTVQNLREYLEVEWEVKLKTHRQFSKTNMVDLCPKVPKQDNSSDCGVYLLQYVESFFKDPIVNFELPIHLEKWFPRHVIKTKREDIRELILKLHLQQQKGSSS

Chain of 72 kDa type IV collagenase (P08253 whole entry): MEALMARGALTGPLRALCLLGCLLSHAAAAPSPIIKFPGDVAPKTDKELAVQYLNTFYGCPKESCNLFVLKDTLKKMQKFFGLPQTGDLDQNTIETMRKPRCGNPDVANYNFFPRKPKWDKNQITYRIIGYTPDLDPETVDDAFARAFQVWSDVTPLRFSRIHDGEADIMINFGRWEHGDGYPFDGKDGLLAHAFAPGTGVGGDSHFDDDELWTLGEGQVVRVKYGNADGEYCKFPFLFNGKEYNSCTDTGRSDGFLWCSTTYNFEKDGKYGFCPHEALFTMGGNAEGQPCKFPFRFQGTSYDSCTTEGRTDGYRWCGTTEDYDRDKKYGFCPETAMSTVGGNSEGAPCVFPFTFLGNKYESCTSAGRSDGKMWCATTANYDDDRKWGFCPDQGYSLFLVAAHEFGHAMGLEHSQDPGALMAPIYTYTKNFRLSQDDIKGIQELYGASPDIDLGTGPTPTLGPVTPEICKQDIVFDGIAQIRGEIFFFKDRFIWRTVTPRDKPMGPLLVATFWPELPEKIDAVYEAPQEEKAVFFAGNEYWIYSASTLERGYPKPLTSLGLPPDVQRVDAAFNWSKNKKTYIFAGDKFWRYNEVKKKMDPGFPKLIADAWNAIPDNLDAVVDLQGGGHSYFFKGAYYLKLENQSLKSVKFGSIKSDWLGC
Chain of 26S proteasome non-ATPase regulatory subunit 14 (O00487 whole entry): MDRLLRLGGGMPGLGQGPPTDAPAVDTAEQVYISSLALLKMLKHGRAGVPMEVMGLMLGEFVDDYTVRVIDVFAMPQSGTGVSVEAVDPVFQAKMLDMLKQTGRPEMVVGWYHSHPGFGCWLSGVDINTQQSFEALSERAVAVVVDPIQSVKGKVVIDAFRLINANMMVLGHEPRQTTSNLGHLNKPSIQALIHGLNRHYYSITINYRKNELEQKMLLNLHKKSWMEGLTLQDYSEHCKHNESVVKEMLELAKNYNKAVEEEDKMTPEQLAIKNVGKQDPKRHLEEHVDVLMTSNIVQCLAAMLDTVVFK

Cc1ccc(C(=O)CSc2cc(C)nc(=O)[nH]2)cc1
IC50 [1]: 33.8 µM (active) | IC50 [2]: 27.9 µM (active) | IC50 (Prothrombin): 47.5 µM (active)

CCCCOC(=O)Cn1c2ccc(OC)cc2c2nc3ccccc3nc21
EC50 [3]: > 300 µM (not active) | EC50 [4]: > 300 µM (not active) | EC50 [5]: > 99 µM (inactive) | EC50 [6]: 24.7 µM (inactive)

O=C(NCc1ccccc1)c1c(Cl)nc(Cl)c(Cl)c1Cl
EC50 [7]: 10.3 µM (active) | EC50 (BJ [8]): 6.46 µM (active) | EC50 [9]: > 120 µM (not active) | EC50 [10]: > 120 µM (not active) | EC50 (BJ [11]): 77.2 µM (inconclusive) | EC50 (BJ [12]): 7.26 µM (inconclusive) | EC50 [13]: 9.83 µM (active) | EC50 [14]: 57.8 µM (active) | EC50 (BJ [15]): 3.69 µM (active)

FC(F)(F)c1ccc(N/N=C/c2c[nH]c3ccccc23)cc1
IC50 [16]: > 99 µM (inactive) | IC50 (Caspase-3): > 99 µM (inactive) | IC50 [17]: > 99 µM (inactive) | IC50 [18]: > 99 µM (inactive)

CCN(CC)c1ccc(/C=N/Nc2nc(N3CCCC3)nc(N3CCCC3)n2)cc1
IC50 [16]: > 99 µM (inactive) | IC50 (Caspase-3): > 99 µM (inactive) | IC50 [17]: > 99 µM (inactive) | IC50 [18]: > 99 µM (inactive)

COc1ccc(CCC(=O)Nc2ccc(-c3noc(/C=C/c4ccccc4)n3)cc2)cc1
IC50 [16]: > 99 µM (inactive) | IC50 (Caspase-3): > 99 µM (inactive) | IC50 [17]: > 99 µM (inactive) | IC50 [18]: > 99 µM (inactive)

Source: ChEMBL document CHEMBL1201862, “PubChem BioAssay data set” (2004)
